The values below come from patent publication US20170226123A1, “Phenylaminopyrimidine-Derived Compounds, Method for Obtaining, Using Said Compounds in the Treatment of Cancer, and Treatment Methods” (Fundacao Oswaldo Cruz, priority 2014, published 2017).

“Also recorded” adds a separate entry of the source.

In data set [1] the test system is K562. The experiment in a line: Cell cycle and DNA fragmentation analysis (propidium iodide, flow cytometry), K562. To be noted: K562, 24 h. The class given is cell-based, human. Here is the method: (§1) The analysis of the impact of the new compounds on the phases of the cell cycle and on the induction of DNA fragmentation were carried out by DNA labeling with the fluorochrome propidium iodide. The assays were analyzed by flow cytometry and the results were analyzed in relation to the control (cells without treatment).
(§2) The induction of DNA fragmentation by the new compounds and by imatinib was assessed by flow cytometry. The analysis of cell cycle and DNA fragmentation was carried out upon 24 hours of incubation with the compounds.
A general note: A flow cytometer gives signals particle by particle.

For data set [2], the system named is K562-Lucena 1. The experiment in a line: Cell cycle and DNA fragmentation analysis (propidium iodide, flow cytometry), K562-Lucena 1. The class given is cell-based, human. The following applies: 24 h. How it is done: as §1, §2
Data set [3] deals with K562-Lucena 1. To be noted: MTT, 72 h; for viability reduction compared between K562 and Lucena lineages: FIG. 2A.
Description: (§3) Cell viability was evaluated through the MTT method, after 72 hours of incubation with TKIs. MTT is a colorimetric method which measures mitochondrial dehydrogenase activity, based on the ability of living cells to reduce the salt, 3-(4,5-dimethylazole-2-yl)-2,5-diphenyltetrazolium bromide in the product formazan.
(§4) Cells were cultured in plates of 96 wells at the concentration of 1×10^4 cells/well in 200 μl of RPMI supplemented with 10% fetal bovine serum. 10 μl of each of the novel TKIs, or imatinib, previously diluted in RPMI medium, were added in different concentrations, and no molecule or imatinib was added in the control group. The plates were kept in a humid atmosphere containing 5% CO2 at 37° C. for 72 hours. Four hours before completion of the established time (72 hours), 20 μl of MTT (Sigma) (final concentration of 10 μg/ml) were added. The plates were kept in the oven for the remaining four hours. 180 μl of the supernatant were removed from each well, and then 150 μl of dimethylsulfoxide (DMSO; Sigma) were added, homogenizing thoroughly for complete dissolution of the salt crystals formed by mitochondrial metabolism, thus resulting in a coloration. […] The 96-well plate was read by the spectrophotometer (Spectramax Plus 384), using a wavelength of 570 nm. The results were analyzed through the absorbance of each well. The viability percentage was obtained through the following formula: [(Absorbance of cells treated with TKIs or imatinib/Absorbance of untreated cells)×100]. All the tests were performed in three different occasions. Three experiments, at least, independent, were carried out and triplicates were made for each concentration.
(§5) The compounds were tested for their cytotoxicity in this lineage.
(§6) The viability of the Lucena cell lineage was evaluated after 72 h of incubation with the novel compounds, through the MTT assay.
The test system of data set [4] is K562. The experiment in a line: MTT cell viability, K562 lineage.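 For all read-outs here: K562 cells (BCR-ABL expressing, CML derived), MTT formazan absorbance after 72 h exposure, compared with untreated control cells, at least three independent experiments run in triplicate.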 To be noted: for Cell viability percentage: average of three independent experiments.
Description: as §3
Cells were cultured in plates of 96 wells at the concentration of 1×10^4 cells/well in 200 μl of RPMI supplemented with 10% fetal bovine serum. 10 μl of each of the novel TKIs, or imatinib, previously diluted in RPMI medium, were added in different concentrations, and no molecule or imatinib was added in the control group. The plates were kept in a humid atmosphere containing 5% CO2 at 37° C. for 72 hours. Four hours before completion of the established time (72 hours), 20 μl of MTT (Sigma) (final concentration of 10 μg/ml) were added. The plates were kept in the oven for the remaining four hours. 180 μl of the supernatant were removed from each well, and then 150 μl of dimethylsulfoxide (DMSO; Sigma) were added, homogenizing thoroughly for complete dissolution of the salt crystals formed by mitochondrial metabolism, thus resulting in a coloration. […] The 96-well plate was read by the spectrophotometer (Spectramax Plus 384), using a wavelength of 570 nm. The results were analyzed through the absorbance of each well. The viability percentage was obtained through the following formula: [(Absorbance of cells treated with TKIs or imatinib/Absorbance of untreated cells)×100]. All the tests were performed in three different occasions. Three experiments, at least, independent, were carried out and triplicates were made for each concentration. By means of this method, we detected the cell inhibition percentage of each new molecule and we compared it with the percentage of viability reduction caused by imatinib.
For data set [5], the system named is K562. As to the kind of experiment: Annexin V/propidium iodide cell death assay by flow cytometry, K562. To be noted: K562, 24 h, 0.25-1.0 μM.
Description: (§7) Cells were incubated for 24 hours with or without addition of the novel compounds. The index of apoptosis induced by the novel compounds was obtained as follows: percentage of cells in induced apoptosis (treated with the drugs) minus the percentage of cells in spontaneous apoptosis (not treated with the drugs) (Vasconcelos et aL, 2007; Vasconcelos et al., 2011).
(§8) To analyze the apoptosis induction potential by the new imatinib derivatives, annexin V/propidium iodide assay was used by flow cytometry.
(§9) To analyze death by apoptosis, the cells were incubated for 24 hours instead of 72 hours.
(§10) Cells without addition of any drug were used for the evaluation of spontaneous death. Cells incubated with DMSO (used to solubilize the compounds derived from imatinib) were used to discard the effect of this substance on cell death induction.
The test system of data set [6] is K562-Lucena 1. As to the kind of experiment: Annexin V/propidium iodide cell death assay by flow cytometry, K562-Lucena 1. The following applies: for induction of cell death (annexin-positive and annexin/PI-positive cells): Lucena, 0.25-1.0 μM.
Description: as §7, §8, §9, §10
Data set [7] concerns K562-Lucena 1. As to the kind of experiment: cells. The following applies: Homo sapiens, K562-Lucena 1, 72 h, read-out: reduction in the viability.
Description: as §3, §4, §5, §6
The subject of a further data set is CML. To be noted: CML patients treated with imatinib (Hunter, 2007); cited from earlier work.
[8] abbreviates: Homo sapiens, K562, 72 h, read-out: Cell viability percentage.

`C[C@H]1[C@@H](OC(=O)CCC(=O)O)O[C@@H]2O[C@@]3(C)CC[C@H]4[C@H](C)CC[C@@H]1[C@@]24OO3.Cc1ccc(NC(=O)c2ccc(CN3CCN(C)CC3)cc2)cc1Nc1nccc(-c2cccnc2)n1` [Compound 03, N-(2-methyl-5-(4-((4-methylpiperazine-1-yl)methyl)benzamide)phenyl)-4-(pyridin-3-yl)pyrimidin-2-aminium-4-oxo-4-(((3R,5aS,6R,8aS,9R,10R,12R,12aR)-3,6,9-trimethyldecahydro-3H-3, 12-epoxy[1,2]dioxepin[4,3-yl]isochromen-10-yl)oxy)butanoate]: the “increase in the number of cells in G0/G1 phase (halt in G0/G1)” value with K562 [1] is “about 10%”. The DNA fragmentation entry in the data set on K562-Lucena 1 [2] is “induced DNA fragmentation”. Besides, in the data set on K562-Lucena 1 [3], the “viability reduction compared between K562 and Lucena lineages” value was “reduced the viability in the two lineages in a similar way”. For the same molecule, the Cell viability percentage in the data set on K562 [4] (K562, MTT, 72 h, 0.05 μM) turned out to be 77.68%; in the data set with K562 [4] (K562, MTT, 72 h, 0.1 μM) it was 82.43%; in the data set with K562 [4] (K562, MTT, 72 h, 0.25 μM), 43.45%; in the data set with K562 [4] (K562, MTT, 72 h, 0.5 μM), 20.16%; with K562 [4] (K562, MTT, 72 h, 1.0 μM), 18.11%; in the data set with K562 [4] (K562, MTT, 72 h, 1.5 μM), 16.73%. The Cell viability percentage with K562 [4] (K562, MTT, 72 h, 2.0 μM) was found to be 15.12%; in the data set with K562 [4] (K562, MTT, 72 h, 2.5 μM), 17.89%; in the data set with K562 [4] (K562, MTT, 72 h, 3.0 μM), 16.69%; in the data set with K562 [4] (K562, MTT, 72 h, 4.0 μM), 16.51%; with K562 [4] (K562, MTT, 72 h, 5.0 μM) it was 15.76%. Moreover, the “reduction in cell viability” value with K562 [4] (K562, MTT, 72 h, 0.25 μM) was “about 50%”. Besides, the “induction of cell death (annexin-positive and annexin/PI-positive cells)” value in the data set on K562 [5] is “induced cell death, probably by apoptosis”; with K562-Lucena 1 [6] (24 h) it was “induced cell death, probably by apoptosis”. In the data set on K562-Lucena 1 [6] (24 h), the “cell death rate in Lucena compared with K562” value is listed as “greater cell death rate than the K562 lineage”.
On to `C[C@H]1[C@@H](OC(=O)CCC(=O)O)O[C@@H]2O[C@@]3(C)CC[C@H]4[C@H](C)CC[C@@H]1[C@@]24OO3.Cc1ccc(N)cc1Nc1nccc(-c2cccnc2)n1` [Compound 04, 4-methyl-3-((4-(pyridin-3-yl)pyrimidin-2-yl)amino)benzenaminium-4-oxo-4-(((3R,5aS,6R,8aS,9R,10R,12R,12aR)-3,6,9-trimethyldecahydro-3H-3,12-epoxy[1,2]dioxepin[4,3-yl]isochromen-10-yl)oxy)butanoate], for which the “alterations in the cell cycle” value in the data set on K562 [1] is reported as “did not foster alterations in the cell cycle”. In addition, the “viability reduction compared between K562 and Lucena lineages” value with K562-Lucena 1 [3] is “more effective in the Lucena lineage; also recorded: greater percentage of reduction of cell viability than the K562 lineage”. Besides, the Cell viability percentage with K562 [4] (K562, MTT, 72 h, 0.05 μM) amounted to 97.54%; with K562 [4] (K562, MTT, 72 h, 0.1 μM), 86.68%; in the data set with K562 [4] (K562, MTT, 72 h, 0.25 μM), 87.20%; in the data set with K562 [4] (K562, MTT, 72 h, 0.5 μM), 79.53%; in the data set with K562 [4] (K562, MTT, 72 h, 1.0 μM) it was 85.68%; in the data set with K562 [4] (K562, MTT, 72 h, 1.5 μM) it was 69.52%. Also, the Cell viability percentage is on record as 56.13% with K562 [4] (K562, MTT, 72 h, 2.0 μM); 53.28% with K562 [4] (K562, MTT, 72 h, 2.5 μM); 48.95% in the data set with K562 [4] (K562, MTT, 72 h, 3.0 μM); 48.17% with K562 [4] (K562, MTT, 72 h, 4.0 μM); 47.69% in the data set with K562 [4] (K562, MTT, 72 h, 5.0 μM). The same molecule came in with a reduction of viability in the data set with K562 [4] (K562, MTT, 72 h, 2.5 μM) of 50%. For the same molecule, the “induction of cell death (annexin-positive and annexin/PI-positive cells)” value was “induced cell death, probably by apoptosis” in the data set on K562 [5] and “induced cell death, probably by apoptosis” in the data set with K562-Lucena 1 [6] (24 h). For the same molecule, the “cell death rate compared with imatinib” value with K562-Lucena 1 [6] (Lucena lineage) was “higher”.
As to `Cc1ccc(NC(=O)c2ccc(CN3CCN(C)CC3)cc2)cc1Nc1nccc(-c2cccnc2)n1` [Imatinib, imatinib, reference compound], in the data set with K562 [1], the DNA fragmentation entry is “induced DNA fragmentation” and the “increase in the number of cells in G0/G1 phase (halt in G0/G1)” value is “about 10%”. In the data set with K562-Lucena 1 [3] (Lucena), the “concentration from which viability reduction reached a plateau” value turned out to be 1.5 µM. For the same molecule, the cytotoxicity at 0.25 µM with K562-Lucena 1 [7] was roughly 60%. In addition, in the data set on CML, the “patients reaching hematological remission” value is listed as roughly 100%. Further, in the data set on K562 [4] (setting [8]), the viability at 0.05 µM came out at 93.5%, the viability at 0.1 µM was 63.4%, the viability at 0.25 µM stood at 54.5% and the viability at 0.5 µM amounted to 20.1%. In the data set on K562 [4] (setting [8]), the viability at 1 µM is 16.3%, the viability at 1.5 µM was 14.3%, the viability at 2 µM was found to be 19.8% and the viability at 2.5 µM was 19.4%. Also, in the data set on K562 [4] (setting [8]), the viability at 3 µM was 14.8%, the viability at 4 µM was 13.5% and the viability at 5 µM was determined as 15%.

Usually viability stands for a read-out of living cells in per cent, often relative to untreated cells.
